From patent publication US9844577B1, “Medicinal composition for prevention or treatment retinal ischemia” (priority 2017, dated 2017)

Legend:
Experiment in all cases: Retinal protein level by western blot after retinal ischemia
Assay type in all cases: in vivo, Wistar rats
HIF-1α protein = details: intravitreal 5 μl 15 min before ischemia: 4 μM Shikonin, 10 μM JIB-04, 100 mg/4 ml Avastin; Vehicle 3.69±0.22
Protocol: (§1) After anesthesia, rats (200-250 g) were placed in a stereotaxic frame. A high intraocular pressure (HIOP) of 120 mmHg for 60 min was induced by cannulating the anterior chamber of one eye of an ischemic rat with a 30-gauge needle connected to an elevated 0.9% saline reservoir. The ischemic insult was confirmed by the detection of a pale eye fundus. In contrast, one eye of a control rat received a sham procedure where the saline reservoir was not elevated.
(§2) An intake of 1.35 or 2.7 g/kg/day XFZYD (Sun Ten Pharmaceutical CO, Taichung, Taiwan) was given for 7 consecutive days before or after HIOP induced retinal ischemia until the rats were sacrificed. The test rat whose eye was subjected to ischemia was fed with the constant volume (4 ml) of XFZYD or the equal volume of vehicle.
(§3) After anesthesia as described, pupil dilation with 1% tropicamide (Alcon, ZG, Switzerland) and 2.5% phenylephrine (Akorn, Inc., IL, USA) as well as surface anesthesia with 0.5% proparacaine (Alcon, ZG, Switzerland), a 30-gauge needle attached to a 25 μl syringe was used to perform intravitreal injections. In certain instances, intravitreal injections 5 μl of 4 μM Shikolin (Sigma-Aldrich, MO, USA), 10 μM JIB-04 (Sigma-Aldrich, MO, USA), 5 μl of 100 mg/4 ml Avastin (Hoffmann-La Roche, Basel, Switzerland) or of vehicle (an equal volume of dimethyl sulfoxide; J. T. Baker, NJ, USA) were performed on ischemic eyes fifteen minutes before pressure induced retinal ischemia.
(§4) Twenty-four hours after retinal ischemia and pre-/post-ischemia administration of the defined chemicals or after a sham procedure, the rats were sacrificed. The retinas were removed and sonicated in lysis buffer, namely mammalian protein extraction reagent (HyCell, Taipei, Taiwan). […] Journal of Ocular Pharmacology and Therapeutics. 2010; 26(5):421-429; Hsiao-Ming Chao, Min-Jay Chuang, Jorn-Hon Liu, Xiao-Qian Liu, Li-Kang Ho, Wynn H. T. Pan, Xiu-Mei Zhang, Chi-Ming Liu, Shen-Kou Tsai, Chi-Woon Kong, Shou-Dong Lee, Mi-Mi Chen, and Fang-Ping Chao. Baicalein protects against retinal ischemia by antioxidation, antiapoptosis, downregulation of HIF-1α, VEGF, and MMP-9 and upregulation of HO-1. Journal of Ocular Pharmacology and Therapeutics. 29(6): 539-549, 2013). The separated proteins were transferred to a polyvinylidene difluoride (PVDF) membrane (Millipore, MA, USA). The membranes were then blocked for 1 hour at room temperature with 5% fat-free skimmed milk (Fonterra, Taoyuan, Taiwan) in phosphate-buffered saline (PBS). Next, the blots were incubated individually overnight at 4° C. with one of the following primary antibodies, namely, mouse monoclonal anti-β-actin antibody (1:80000, Novusbio, MA, USA), mouse monoclonal anti-VEGF antibody (1:200, Novusbio, MA, USA), mouse monoclonal anti-HIF-1α antibody (1:1000, Abcom, Cambridge, UK), rabbit polyclonal anti-PKM2 antibody (1:600, Abcom, Cambridge, UK) and rabbit monoclonal anti-RBP2 antibody (1:500, Abcom, Cambridge, UK). The blots were then incubated in the secondary antibody, either horseradish peroxidase (HRP)-conjugated goat anti-rabbit or antimouse IgG (1:2000 or 1:10000, Santa Cruz Biotechnology, TX, USA) as appropriate at 37° C. for 1 h. The primary/secondary antibodies were diluted in 5% fat-free skimmed milk. Finally, the membranes were developed using the enhanced chemiluminescent analysis system (HyCell, Taipei, Taiwan), and exposed to an X-ray film (Fujifilm, Tokyo, Japan). Scanning densitometry was used to analyze the amount of each protein present.

PKM2 protein = details: intravitreal 5 μl 15 min before ischemia: 4 μM Shikonin, 10 μM JIB-04, 100 mg/4 ml Avastin; Vehicle 4.04±0.50
Protocol: as §1, §2, §3, §4

RBP2 protein = details: intravitreal 5 μl 15 min before ischemia: 4 μM Shikonin, 10 μM JIB-04, 100 mg/4 ml Avastin; Vehicle 7.77±2.27
Protocol: as §1, §2, §3, §4

VEGF protein = details: intravitreal 5 μl 15 min before ischemia: 4 μM Shikonin, 10 μM JIB-04, 100 mg/4 ml Avastin; Vehicle 6.92±1.55
Protocol: as §1, §2, §3, §4

| Molecule | ratio of protein expression level of HIF-1α relative to β-actin (HIF-1α protein) | ratio of protein expression level of PKM2 relative to β-actin (PKM2 protein) | ratio of protein expression level of RBP2 relative to β-actin (RBP2 protein) | ratio of protein expression level of VEGF relative to β-actin (VEGF protein) |
| --- | --- | --- | --- | --- |
| Clc1ccc(N/N=C(\c2ccccc2)c2ccccn2)nc1 [JIB-04] | 2.14±1.11 | 1.67±1.31 | 1.16±0.14 | 1.68±0.46 |
| CC(C)=CC[C@@H](O)C1=CC(=O)c2c(O)ccc(O)c2C1=O [Shikonin] | 1.95±0.76 | 0.61±0.19 | 1.00±0.71 | 1.84±0.60 |
| Avastin: VEGF antibody (Hoffmann-La Roche) | 3.65±0.84 | 3.42±0.88 | 6.00±3.61 | 1.08±0.23 |
